Results on 21 compounds are retold here after patent US10736320B2, “Pesticidally active polycyclic derivatives with 5-membered sulfur containing heterocyclic ring systems” (Syngenta Participations AG, priority 2015, dated 2020).

Structures are written as SMILES. A value given as a limit tells only on which side of the number the result lay.

The test system of data set [1] is Spodoptera littoralis (Egyptian cotton leaf worm). Briefly: Insecticidal action against Spodoptera littoralis (Egyptian cotton leaf worm), sprayed cotton leaf discs. Format: in vivo. The conditions noted are these: foliar, 72 h, application rate of 200 ppm, L1 larvae, 3 days after infestation, read-out: control (at least one of mortality, anti-feedant effect, and growth inhibition). How it is done:
Cotton leaf discs were placed on agar in 24-well microtiter plates and sprayed with aqueous test solutions prepared from 10,000 ppm DMSO stock solutions. After drying the leaf discs were infested with five L1 larvae. The samples were assessed for mortality, anti-feedant effect, and growth inhibition in comparison to untreated samples 3 days after infestation. Control of Spodoptera littoralis by a test sample is when at least one of mortality, anti-feedant effect, and growth inhibition is higher than the untreated sample.

Data set [2] relates to Plutella xylostella (diamond back moth). The data set can be described thus: Insecticidal action against Plutella xylostella (diamond back moth), treated artificial diet. Format: in vivo. The note with it: 120 h, application rate of 200 ppm, L2 larvae, 5 days after infestation, read-out: effect in at least one of the two categories (mortality or growth inhibition). As to the method:
24-well microtiter plates with artificial diet were treated with aqueous test solutions prepared from 10,000 ppm DMSO stock solutions by pipetting. After drying, the plates were infested with L2 larvae (10 to 15 per well). The samples were assessed for mortality and growth inhibition in comparison to untreated samples 5 days after infestation.

Data set [3] has as its system Diabrotica balteata (corn root worm). Briefly: Insecticidal action against Diabrotica balteata (corn root worm), sprayed maize sprouts. Format: in vivo. The note with it: 96 h, application rate of 200 ppm, L2 larvae, 4 days after infestation. How it is done: Maize sprouts, placed on an agar layer in 24-well microtiter plates were treated with aqueous test solutions prepared from 10,000 ppm DMSO stock solutions by spraying. After drying, the plates were infested with L2 larvae (6 to 10 per well). The samples were assessed for mortality 4 days after infestation.

Data set [4] deals with Myzus persicae (green peach aphid). The data set can be described thus: Insecticidal action against Myzus persicae (green peach aphid), sprayed sunflower leaf discs. Format: in vivo. The note with it: foliar, 144 h, application rate of 200 ppm, aphid population of mixed ages, 6 days after infestation. How it is done:
Sunflower leaf discs were placed on agar in a 24-well microtiter plate and sprayed with aqueous test solutions prepared from 10,000 ppm DMSO stock solutions. After drying, the leaf discs were infested with an aphid population of mixed ages. The samples were assessed for mortality 6 days after infestation.

The test system of data set [5] is Spodoptera littoralis (Egyptian cotton leaf worm). Briefly: Insecticidal action against Spodoptera littoralis (Egyptian cotton leaf worm), uptake by lettuce roots from agar. Format: in vivo. The conditions noted are these: 144 h, test rate of 12.5 ppm, 6 days after infestation, read-out: effect in at least one of the three categories (mortality, anti-feedancy, or growth inhibition). The source says: Test compounds were applied by pipette from 10,000 ppm DMSO stock solutions into 24-well plates and mixed with agar. Lettuce seeds were placed on the agar and the multi well plate was closed by another plate which contains also agar. After 7 days the roots have absorbed the compound and the lettuce has grown into the lid plate. The lettuce leafs were now cut off into the lid plate. Spodoptera eggs were pipetted through a plastic stencil on a humid gel blotting paper and the plate closed with it. The samples were assessed for mortality, anti-feedant effect and growth inhibition in comparison to untreated samples 6 days after infestation.

Take `CCS(=O)(=O)c1cc(C(F)(F)F)ccc1-c1nnc(-c2ccc(C(F)(F)F)nc2)s1` [Compound P1, 2-[2-ethylsulfonyl-4-(trifluoromethyl)phenyl]-5-[6-(trifluoromethyl)-3-pyridyl]-1,3,4-thiadiazole]: the mortality at 200 ppm in data set [1] and in data set [3] was no less than 80% in each case. Also, in data set [2], the percent effect (mortality or growth inhibition) at 200 ppm was no less than 80%.

Turning to `CCSc1cc(C(F)(F)F)ccc1-c1nnc(-c2ccc(C(F)(F)F)nc2)s1` [Compound P2, 2-[2-ethylsulfanyl-4-(trifluoromethyl)phenyl]-5-[6-(trifluoromethyl)-3-pyridyl]-1,3,4-thiadiazole], the melting point fell in the range of 170 to 172 °C.

Regarding `CCSc1cc(C(F)(F)F)ccc1-c1nnc(-c2cncc(C(F)(F)F)c2)s1` [Compound P3, 2-[2-ethylsulfanyl-4-(trifluoromethyl)phenyl]-5-[5-(trifluoromethyl)-3-pyridyl]-1,3,4-thiadiazole], the melting point is 143 to 145 °C.

Take `CCS(=O)(=O)c1cc(C(F)(F)F)ccc1-c1nnc(-c2cncc(C(F)(F)F)c2)s1` [Compound P4, 2-[2-ethylsulfonyl-4-(trifluoromethyl)phenyl]-5-[5-(trifluoromethyl)-3-pyridyl]-1,3,4-thiadiazole]: the mortality at 200 ppm in data set [4], in data set [1] and in data set [3] was no less than 80% throughout. Also, the percent effect (mortality or growth inhibition) at 200 ppm in data set [2] is no less than 80%. Further, the percent control (mortality, anti-feedancy or growth inhibition) at 12.5 ppm in data set [5] is no less than 80%. In the case of `CCSc1cc(C(F)(F)F)cnc1-c1nnc(-c2cncc(C(F)(F)F)c2)s1` [Compound P5, 2-[3-ethylsulfanyl-5-(trifluoromethyl)-2-pyridyl]-5-[5-(trifluoromethyl)-3-pyridyl]-1,3,4-thiadiazole], the melting point lay in the range of 151 to 153 °C. For the compound `CCS(=O)(=O)c1cc(C(F)(F)F)cnc1-c1nnc(-c2cncc(C(F)(F)F)c2)s1` [Compound P6, 2-[3-ethylsulfonyl-5-(trifluoromethyl)-2-pyridyl]-5-[5-(trifluoromethyl)-3-pyridyl]-1,3,4-thiadiazole], the mortality at 200 ppm in data set [1] and in data set [3] was no less than 80% in each case. For the same compound, the percent effect (mortality or growth inhibition) at 200 ppm in data set [2] is no less than 80%. Take `CCSc1cc(C(F)(F)F)ccc1-c1ncc(-c2ccc(C(F)(F)F)nc2)s1` [Compound P7, 2-[2-ethylsulfanyl-4-(trifluoromethyl)phenyl]-5-[6-(trifluoromethyl)-3-pyridyl]thiazole]: in data set [2], the percent effect (mortality or growth inhibition) at 200 ppm is no less than 80%.

Regarding `CCS(=O)(=O)c1cc(C(F)(F)F)ccc1-c1ncc(-c2ccc(C(F)(F)F)nc2)s1` [Compound P8, 2-[2-ethylsulfonyl-4-(trifluoromethyl)phenyl]-5-[6-(trifluoromethyl)-3-pyridyl]thiazole], the mortality at 200 ppm in data set [1] and in data set [3] was no less than 80% in each case. The percent effect (mortality or growth inhibition) at 200 ppm in data set [2] was no less than 80%. Regarding `CCS(=O)(=O)c1cc(C(F)(F)F)ccc1-c1ncc(-c2cncc(C(F)(F)F)c2)s1` [Compound P9, 2-[2-ethylsulfonyl-4-(trifluoromethyl)phenyl]-5-[5-(trifluoromethyl)-3-pyridyl]thiazole], the mortality at 200 ppm in data set [1] and in data set [3] was no less than 80% in each case. As for `CCS(=O)(=O)c1cc(C(F)(F)F)cnc1-c1nnc(-c2cc(C(F)(F)F)ccn2)s1` [Compound P10, 2-[3-ethylsulfonyl-5-(trifluoromethyl)-2-pyridyl]-5-[4-(trifluoromethyl)-2-pyridyl]-1,3,4-thiadiazole], the mortality at 200 ppm in data set [1] and in data set [3] was no less than 80% in each case. With `CCS(=O)(=O)c1cc(C(F)(F)F)cnc1-c1nccs1` [Compound P11, 2-[3-ethylsulfonyl-5-(trifluoromethyl)-2-pyridyl]thiazole], the melting point is 110 to 112 °C.

The compound `CCS(=O)(=O)c1cc(C(F)(F)F)cnc1-c1ncc(-c2cc(C(F)(F)F)ccn2)s1` [Compound P12, 2-[3-ethylsulfonyl-5-(trifluoromethyl)-2-pyridyl]-5-[4-(trifluoromethyl)-2-pyridyl]thiazole] registered a melting point of 173 to 175 °C.

For the compound `CCS(=O)(=O)c1cc(C(F)(F)F)cnc1-c1ncc(-c2ccc(C(F)(F)F)cn2)s1` [Compound P13, 2-[3-ethylsulfonyl-5-(trifluoromethyl)-2-pyridyl]-5-[5-(trifluoromethyl)-2-pyridyl]thiazole], the melting point was 208 to 210 °C. With `CCS(=O)(=O)c1cc(C(F)(F)F)cnc1-c1ncc(-c2cncc(C(F)(F)F)c2)s1` [Compound P14, 2-[3-ethylsulfonyl-5-(trifluoromethyl)-2-pyridyl]-5-[5-(trifluoromethyl)-3-pyridyl]thiazole], the mortality at 200 ppm in data set [1] is no less than 80%.

The compound `CCS(=O)(=O)c1cc(C(F)(F)F)cnc1-c1ncc(-c2ccc(C(F)(F)F)nc2)s1` [Compound P15, 2-[3-ethylsulfonyl-5-(trifluoromethyl)-2-pyridyl]-5-[6-(trifluoromethyl)-3-pyridyl]thiazole] had a melting point of 228 to 230 °C. Regarding `CCS(=O)(=O)c1cc(-c2ncccn2)cnc1-c1nnc(-c2cncc(C(F)(F)F)c2)s1` [Compound P16, 2-(3-ethylsulfonyl-5-pyrimidin-2-yl-2-pyridyl)-5-[5-(trifluoromethyl)-3-pyridyl]-1,3,4-thiadiazole], the mortality at 200 ppm in data set [3] is no less than 80%.

As for `CCS(=O)(=O)c1ccc(-c2ncccn2)nc1-c1nnc(-c2cncc(C(F)(F)F)c2)s1` [Compound P17, 2-(3-ethylsulfonyl-6-pyrimidin-2-yl-2-pyridyl)-5-[5-(trifluoromethyl)-3-pyridyl]-1,3,4-thiadiazole], the percent effect (mortality or growth inhibition) at 200 ppm in data set [2] was no less than 80%. This compound also registered a mortality at 200 ppm in data set [3] of no less than 80%. Consider `CCS(=O)(=O)c1cc(C2CC2)cnc1-c1nnc(-c2cc(C(F)(F)F)ccn2)s1` [Compound P18, 2-(5-cyclopropyl-3-ethylsulfonyl-2-pyridyl)-5-[4-(trifluoromethyl)-2-pyridyl]-1,3,4-thiadiazole], for which the mortality at 200 ppm in data set [1] and in data set [3] was no less than 80% each time. The percent effect (mortality or growth inhibition) at 200 ppm in data set [2] was no less than 80%. In the case of `CCS(=O)(=O)c1cc(C2CC2)cnc1-c1nnc(-c2cncc(C(F)(F)F)c2)s1` [Compound P19, 2-(5-cyclopropyl-3-ethylsulfonyl-2-pyridyl)-5-[5-(trifluoromethyl)-3-pyridyl]-1,3,4-thiadiazole], the mortality at 200 ppm in data set [4], in data set [1] and in data set [3] was no less than 80% each time. Further, the percent effect (mortality or growth inhibition) at 200 ppm in data set [2] is no less than 80%. As to `CCS(=O)(=O)c1ccc(C2CC2)nc1-c1nnc(-c2cncc(C(F)(F)F)c2)s1` [Compound P20, 2-(6-cyclopropyl-3-ethylsulfonyl-2-pyridyl)-5-[5-(trifluoromethyl)-3-pyridyl]-1,3,4-thiadiazole], the mortality at 200 ppm in data set [1] and in data set [3] was no less than 80% each time. Further, in data set [2], the percent effect (mortality or growth inhibition) at 200 ppm was no less than 80%. Consider `CCS(=O)(=O)c1cc(C(F)(F)F)cnc1-c1nnc(-c2ccc(C(F)(F)F)nc2)s1` [Compound P21, 2-[3-ethylsulfonyl-5-(trifluoromethyl)-2-pyridyl]-5-[6-(trifluoromethyl)-3-pyridyl]-1,3,4-thiadiazole], for which the melting point lay within 193 to 195 °C.
